Assays:
Wild Type ALK kinase = target: T1, Wild Type ALK kinase (Homo sapiens, UniProt Q9UM73); experiment: HTRF KinEASE-TK assay, inhibitory activity on wild type ALK kinase; type: biochemical; conditions: wild type ALK 1 ng/μl, substrate 1 μM, 30° C. 35 minutes, read-out: Inhibition on ALK kinases (wildtype), IC50
T1 construct: purchased Sino-US Crown Bioscience, Inc. batch number ALK 20110607
Excerpt: 1. Inhibitory Activities of the Compounds of the Present Invention on Wild Type ALK Kinases
? experimental method ? HTRF KinEASE™-TK Assay kit from Cisbio company was used to detect inhibitory activities of the compounds on wildtype ALK kinases (wild type ALK kinases).
(§1) ? instrument ? Envision 2104 plate reader from PerKinElmer company.
(§2) ? experiment material ? HTRF KinEASE™-TK Assay Kit (Cisbio company, catalog No. 62TK0PEC); Wild Type ALK kinase (produced by Sino-US Crown Bioscience, Inc., batch number ALK 20110607); DTT (Gibco BRL company, catalog No. 15508-012); MgCl2 (Sigma Aldrich company, catalog No. M-2670); ATP (Sigma Aldrich company, catalog No. A-7699); DMSO (AMRESCO company, catalog No. 0231); EDTA (AMRESCO company, catalog No. 0105); 96 wells plates (for diluting compounds) (CITOTEST company, catalog No. Ref36020096D); OptiPlate™-384 (White), PerkinElmer company, catalog No. P12-004)
(§3) ? experimental condition ? Compounds (the final concentration of DMSO was 1%), the reaction substrate (the final concentration was 1 μM), ATP (the final concentration was 2004), and Wildtype ALK kinases (the final concentration was 1 ng/μl) were mixed respectively in a final volume of 10 μl reaction system (containing 5 mM MgCl2, 1× Kinase buffer, and 1 mM DTT). The mixture was reacted at 30° C. for 35 minutes after shaking for 30 seconds. After completion of the reaction, each well was added with 5 μl Sa-XL665 and 5 μl TK Antibody-Eu(K), and placed in the dark for 60 minutes to end the reaction after uniform mixing. The data was read from PerkinElmer EnVision plate reader ([…]), the 665/615 ratio was calculated, and the data was analyzed.
(§4) ? tested samples ? Compounds from the examples.
(§5) ? data analysis ? Minimum 665/615 ratio (Rmin, 665/615 ratio under the condition that 10.4 μM positive control drug LDK-378 was added)
(§6) Maximum 665/615 ratio (Rmax, 665/615 ratio under the condition that no compound was added)
(§7) Tested 665/615 ratio (Rcompound, 665/615 ratio under the condition that a given concentration of compound was added) Inhibition rate (%)=[1−(Rcompound−Rmin)/(Rmax−Rmin)]×100
(§8) ? data processing ? IC50 of compounds was calculated by using XLfit program in Excel.

L1196M mutant ALK kinase = target: T2, L1196M mutant ALK kinase (Homo sapiens, UniProt Q9UM73, L1196M); experiment: HTRF KinEASE-TK assay, inhibitory activity on L1196M mutant ALK kinase; type: biochemical; conditions: L1196M mutant ALK 1 ng/μl, substrate 1 μM, ATP 5 μM, 30° C. 35 minutes, read-out: Inhibition on ALK kinases (L1196M mutant), IC50
T2 construct: purchased Sino-US Crown Bioscience, Inc. batch number ALKm_20110923
T2 sequence (Q9UM73 19-1620 L1196M): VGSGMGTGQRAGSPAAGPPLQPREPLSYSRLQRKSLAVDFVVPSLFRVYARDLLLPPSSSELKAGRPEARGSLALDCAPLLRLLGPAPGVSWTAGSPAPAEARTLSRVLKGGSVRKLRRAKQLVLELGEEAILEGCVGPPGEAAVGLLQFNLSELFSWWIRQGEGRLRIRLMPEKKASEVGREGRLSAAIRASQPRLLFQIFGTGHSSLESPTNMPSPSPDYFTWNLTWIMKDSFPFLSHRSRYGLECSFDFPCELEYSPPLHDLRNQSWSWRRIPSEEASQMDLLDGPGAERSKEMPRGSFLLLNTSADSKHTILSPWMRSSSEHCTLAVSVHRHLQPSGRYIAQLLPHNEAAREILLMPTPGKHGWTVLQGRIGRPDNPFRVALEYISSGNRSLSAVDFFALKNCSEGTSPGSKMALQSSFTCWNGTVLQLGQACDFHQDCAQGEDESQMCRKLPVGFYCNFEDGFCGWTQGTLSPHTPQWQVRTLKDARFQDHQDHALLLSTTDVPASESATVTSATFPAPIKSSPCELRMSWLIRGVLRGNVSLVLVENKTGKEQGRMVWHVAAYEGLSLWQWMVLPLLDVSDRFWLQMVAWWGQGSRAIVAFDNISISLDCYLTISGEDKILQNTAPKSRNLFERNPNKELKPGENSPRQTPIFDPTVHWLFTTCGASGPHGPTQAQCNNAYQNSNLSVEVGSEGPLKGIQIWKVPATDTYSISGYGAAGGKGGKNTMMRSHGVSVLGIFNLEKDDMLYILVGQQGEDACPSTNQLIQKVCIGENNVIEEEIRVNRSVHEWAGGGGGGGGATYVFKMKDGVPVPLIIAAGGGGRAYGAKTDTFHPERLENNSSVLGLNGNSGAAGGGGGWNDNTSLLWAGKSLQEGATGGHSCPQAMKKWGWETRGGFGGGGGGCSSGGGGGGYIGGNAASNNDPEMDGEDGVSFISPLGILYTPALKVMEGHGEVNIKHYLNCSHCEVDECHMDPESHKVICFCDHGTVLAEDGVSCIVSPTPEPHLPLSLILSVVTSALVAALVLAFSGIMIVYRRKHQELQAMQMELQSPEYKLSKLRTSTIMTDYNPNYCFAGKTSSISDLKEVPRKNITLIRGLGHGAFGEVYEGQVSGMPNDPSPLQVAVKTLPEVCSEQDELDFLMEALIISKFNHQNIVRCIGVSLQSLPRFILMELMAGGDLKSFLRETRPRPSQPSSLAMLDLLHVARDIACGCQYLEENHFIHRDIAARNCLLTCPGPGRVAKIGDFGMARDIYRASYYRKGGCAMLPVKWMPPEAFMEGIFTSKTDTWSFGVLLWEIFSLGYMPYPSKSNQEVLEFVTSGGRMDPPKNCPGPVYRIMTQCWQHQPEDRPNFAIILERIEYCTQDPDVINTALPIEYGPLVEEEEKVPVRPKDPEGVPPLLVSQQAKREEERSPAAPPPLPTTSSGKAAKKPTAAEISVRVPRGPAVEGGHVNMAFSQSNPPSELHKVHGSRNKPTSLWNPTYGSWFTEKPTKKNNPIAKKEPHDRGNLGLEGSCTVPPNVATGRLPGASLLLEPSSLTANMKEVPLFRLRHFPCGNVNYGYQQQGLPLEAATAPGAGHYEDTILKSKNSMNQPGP
Excerpt: 2. Inhibitory Activities of the Compounds of the Present Invention on L1196M Mutant ALK Kinases
? experimental method ? HTRF KinEASE™-TK Assay kit from Cisbio company was used to detect inhibitory activities of the compounds on L1196M mutant ALK kinases.
as §1
as §2, with “L1196M mutant” for “Wild Type”, “ALKm_20110923);” for “ALK 20110607);”, “A-7699, batch number 051M7014V);” for “A-7699);”
as §3, with “5 μM),” for “2004),”, “L1196M mutant” for “Wildtype”
as §4, §5, §6, §7, §8

NCI-H2228 cell line = experiment: CellTiter-Glo cell proliferation inhibition on NCI-H2228 cell line; type: cell-based; conditions: Homo sapiens, NCI-H2228, 96 h, NCI-H2228 cells, 5000 cells/well, 4 days drug treatment
Experimental: 3. Cell Proliferation Inhibitory Activities of the Compounds of the Present Invention on NCI-H2228 Cell Line
? experimental method ? CellTiter-Glo® Luminescent Cell Viability Assay kit from Promega company was used to detect cell proliferation inhibitory activities of the compounds on NCI-H2228 cell line.
? instrument ? Envision 2104 plate reader from PerKinElmer company; Vi-Cell XR cell counter from Beckman Counter company; MCO-18AIC CO2 incubator from SANYO company.
? experiment material ? CellTiter-Glo® Luminescent Cell Viability Assay Kit (Promega company, catalog No. G7573); NCI-H2228 cell line (ATCC, catalog No. CRL-5935); RPMI-1640 medium (HyClone company, catalog No. SH30809.01B); fetal bovine serum (FBS) (Gibco company, catalog No. 10099-141); trypsin (Trypsin) (Gibco company, catalog No. 25200-072); PBS (HyClone company, catalog No. SH30256.01B); 96 wells cell culture plate (Corning company, catalog No. 3610); DMSO (AMRESCO company, catalog No. 0231); 96 wells plates (for diluting compounds) (CITOTEST company, catalog No. Ref36020096D);
? experimental condition ? NCI-H2228 cells in exponential growth phase were collected and treated with trypsin (Trypsin), and viable cells were counted by Vi-Cell XR cell counter. Cell suspension was adjusted to 62500 cells/ml with culture medium (RPMI-1640+10% FBS). 80 μl cell suspension was added into each well of 96 wells cell culture plate so that the final cell number of NCI-H2228 cells was 5000 cells/well. The cells were cultivated in an incubator with an atmosphere of 37° C., 5% CO2 and 95% humidity for 2 hours and then each well was added with 20 μl compounds in RPMI-1640 medium solution (the final concentration of DMSO was 0.5%). 4 days after drug treatment, each well was added with 50 μl CellTiter-Glo solution which was previously thawed and equilibrated to room temperature, and mixed for 2 minutes with microplate shaker. After placing at room temperature for 10 minutes, luminescence value was measured by PerkinElmer Envision 2104 plate reader and the data was analyzed.
? tested samples ? Compounds of the examples.
? data analysis ? Luminescence value of DMSO solvent control (Vvehicle control, which is the mean luminescence value from DMSO solvent control group)
Tested luminescence value (Vsample, which is the luminescence value from given concentration of compounds group) Inhibition rate (%)=(1−Vsample/Vvehicle control)×100
as §8

T1 sequence (Q9UM73 19-1620): as the sequence (Q9UM73 19-1620 L1196M) above, with M1178L counted along it

## Cc1cc(Nc2ncc(Cl)c(Nc3cn(C)nc3S(=O)(=O)C(C)C)n2)c(C(C)C)cc1C1CCN(C)CC1 [Final product 33]
Wild Type ALK kinase
  IC50: 12 nM
L1196M mutant ALK kinase
  IC50: 28 nM
NCI-H2228 cell line
  IC50: 660 nM

## Cc1cc(Nc2ncc(Cl)c(Nc3cn(C)nc3S(=O)(=O)C3CCC3)n2)c(OC2CC2)cc1C1CCN(C)CC1 [Final product 52]
Wild Type ALK kinase
  IC50: 2 nM
L1196M mutant ALK kinase
  IC50: 15 nM
NCI-H2228 cell line
  IC50: 76 nM

## Cc1cc(Nc2ncc(F)c(Nc3cn(C)nc3S(=O)(=O)C(C)C)n2)c(OC2CC2)cc1C1CCN(C)CC1 [Final product 70]
Wild Type ALK kinase
  IC50: 2 nM
L1196M mutant ALK kinase
  IC50: 18 nM
NCI-H2228 cell line
  IC50: 81 nM

## Cc1cc(Nc2ncc(C)c(Nc3cn(C)nc3S(=O)(=O)C(C)C)n2)c(OC2CC2)cc1C1CCN(C)CC1 [Final product 72]
Wild Type ALK kinase
  IC50: 1 nM
L1196M mutant ALK kinase
  IC50: 6 nM
NCI-H2228 cell line
  IC50: 69 nM

## Cc1cc(Nc2ncc(Cl)c(Nc3cn(C)nc3S(=O)(=O)C(C)C)n2)c(OC2CC2)cc1C1CCN(C)C(C)C1 (stereo not shown) [Final product 92]
Wild Type ALK kinase
  IC50: 2 nM
L1196M mutant ALK kinase
  IC50: 5 nM
NCI-H2228 cell line
  IC50: 48 nM

## Cc1nc(S(=O)(=O)C(C)C)c(Nc2nc(Nc3cc(C)c(C4CCN(C)CC4)cc3OC3CC3)ncc2Cl)s1 [Final product 113]
Wild Type ALK kinase
  IC50: 6 nM
L1196M mutant ALK kinase
  IC50: 22 nM
NCI-H2228 cell line
  IC50: 150 nM

## Cc1cc(Nc2ncc(Cl)c(Nc3cn(C)nc3S(=O)(=O)C(C)C)n2)c(OC2CC2)cc1C1CCN(C(C)C)CC1 [Final product 123, 5-chloro-N^2-[2-cyclopropoxy-4-(1-isopropylpiperidin-4-yl)-5-methyl-phenyl]-N^4-[1-methyl-3-(isopropylsulfonyl)-1H-pyrazol-4-yl]-pyrimidin-2,4-diamine]
Wild Type ALK kinase
  IC50: 2 nM
L1196M mutant ALK kinase
  IC50: 5 nM

## Cc1cc(Nc2ncc(Cl)c(Nc3cn(C)nc3S(=O)(=O)C(C)C)n2)c(OC2CC2)cc1C1CCN(C(=O)C(C)C)CC1 [Final product 163, 1-isobutyryl-4-(4-(5-chloro-4-(3-(isopropylsulfonyl)-1-methyl-1H-pyrazol-4-amino)pyrimidin-2-amine)-5-cyclopropoxy-2-methylphenyl)piperidine]
Wild Type ALK kinase
  IC50: 26 nM
L1196M mutant ALK kinase
  IC50: 29 nM
NCI-H2228 cell line
  IC50: 149 nM

## Cc1cc(Nc2ncc(Cl)c(Nc3cn(C)nc3S(=O)(=O)CC(C)C)n2)c(OC(C)C)cc1C1CN(S(C)(=O)=O)C1 [Final product 169]
Wild Type ALK kinase
  IC50: 68 nM
L1196M mutant ALK kinase
  IC50: 43 nM
NCI-H2228 cell line
  IC50: 133 nM

## CCN(CC)[C@H]1CC[C@@H](c2cc(OC3CC3)c(Nc3ncc(Cl)c(Nc4cn(C)nc4S(=O)(=O)C(C)C)n3)cc2C)CC1 [Final product 191]
Wild Type ALK kinase
  IC50: 8 nM
L1196M mutant ALK kinase
  IC50: 17 nM
NCI-H2228 cell line
  IC50: 60 nM

## CCN(CC)[C@H]1CC[C@H](c2cc(OC3CC3)c(Nc3ncc(Cl)c(Nc4cn(C)nc4S(=O)(=O)C(C)C)n3)cc2C)CC1 [Final product 192]
Wild Type ALK kinase
  IC50: 9 nM
L1196M mutant ALK kinase
  IC50: 12 nM
NCI-H2228 cell line
  IC50: 68 nM

## Cc1cc(Nc2ncc(Cl)c(Nc3cn(C)nc3S(=O)(=O)C(C)C)n2)c(OC2CC2)cc1[C@H]1CC[C@H](N(C)C(C)C)CC1 [Final product 194]
NCI-H2228 cell line
  IC50: 78 nM

## Cc1cc(Nc2ncc(Cl)c(Nc3cn(C)nc3S(=O)(=O)C(C)C)n2)c(OC2CC2)cc1[C@H]1CC[C@@H](NC2CC2)CC1 [Final product 195]
NCI-H2228 cell line
  IC50: 116 nM

## Cc1cc(Nc2ncc(Cl)c(Nc3cn(C)nc3S(=O)(=O)C(C)C)n2)c(OC2CC2)cc1[C@H]1CC[C@@H](NC(C)C)CC1 [Final product 197]
NCI-H2228 cell line
  IC50: 72 nM

## Cc1cc(Nc2ncc(Cl)c(Nc3cn(C)nc3S(=O)(=O)C(C)C)n2)c(OC2CC2)cc1[C@H]1CC[C@@H](NCCN(C)C)CC1 [Final product 199]
NCI-H2228 cell line
  IC50: 225 nM

## Cc1cc(Nc2ncc(Cl)c(Nc3cn(C)nc3S(=O)(=O)C(C)C)n2)c(OC2CC2)cc1[C@H]1CC[C@H](NCCN(C)C)CC1 [Final product 200]
NCI-H2228 cell line
  IC50: 210 nM

## Cc1cc(Nc2ncc(Cl)c(Nc3cn(C)nc3S(=O)(=O)C(C)C)n2)c(OC2CC2)cc1C1CCC(N2CCCC2)CC1 (stereo not shown) [Final product 201]
NCI-H2228 cell line
  IC50: 149 nM

## CC(=O)N1CCN([C@H]2CC[C@@H](c3cc(OC4CC4)c(Nc4ncc(Cl)c(Nc5cn(C)nc5S(=O)(=O)C(C)C)n4)cc3C)CC2)CC1 [Final product 203]
NCI-H2228 cell line
  IC50: 189 nM

## Cc1cc(Nc2ncc(Cl)c(Nc3cn(C)nc3S(=O)(=O)C(C)C)n2)c(OC2CC2)cc1[C@H]1CC[C@H](NC(=O)C2CC2)CC1 [Final product 207, N-(4-(4-(5-chloro-4-(3-(isopropylsulfonyl)-1-methyl-1H-pyrazol-4-amine)pyrimidin-2-amine)-5-cyclopropoxy-2-methylphenyl)cyclohexyl) cyclopropyl carboxamide]
NCI-H2228 cell line
  IC50: 154 nM

## Cc1cc(Nc2ncc(C(F)(F)F)c(Nc3cn(C)nc3S(=O)(=O)C(C)C)n2)c(OC2CC2)cc1C1CCN(C)CC1 [Final product 209, N^2-[2-cyclopropoxy-4-(1-methyl-piperidin-4-yl)-5-methylphenyl]-N^4-[1-methyl-3-(isopropylsulfonyl)-1H-pyrazol-4-yl]-5-(trifluoromethyl)pyrimidin-2,4-diamine]
Wild Type ALK kinase
  IC50: 3 nM
L1196M mutant ALK kinase
  IC50: 9 nM
NCI-H2228 cell line
  IC50: 71 nM
